We go through one compound from ChEMBL document CHEMBL2057121, “Selective non-lipid modulator of LPA5 activity in human platelets” (Bioorg Med Chem Lett, 2012).

In test [1] the target is Lysophosphatidic acid receptor 5 (Homo sapiens, UniProt Q9H1C0). The test is described as follows: Antagonist activity at human recombinant LPA5 receptor expressed in rat RH7777 cells assessed as inhibition of hexadecyl-LPA-induced effect. The test is classed as functional, cell-based.
For test [2], the target named is Lysophosphatidic acid receptor 1/3 (Homo sapiens, UniProt Q9UBY5+Q92633). The test is described as follows: Antagonist activity at LPA1/3 receptor in human isolated platelets assessed as inhibition of collagen-induced platelet aggregation after 3 mins. The format is functional.

Molecules are shown by their SMILES.

Lysophosphatidic acid receptor 5, sequence (Q9H1C0 whole entry): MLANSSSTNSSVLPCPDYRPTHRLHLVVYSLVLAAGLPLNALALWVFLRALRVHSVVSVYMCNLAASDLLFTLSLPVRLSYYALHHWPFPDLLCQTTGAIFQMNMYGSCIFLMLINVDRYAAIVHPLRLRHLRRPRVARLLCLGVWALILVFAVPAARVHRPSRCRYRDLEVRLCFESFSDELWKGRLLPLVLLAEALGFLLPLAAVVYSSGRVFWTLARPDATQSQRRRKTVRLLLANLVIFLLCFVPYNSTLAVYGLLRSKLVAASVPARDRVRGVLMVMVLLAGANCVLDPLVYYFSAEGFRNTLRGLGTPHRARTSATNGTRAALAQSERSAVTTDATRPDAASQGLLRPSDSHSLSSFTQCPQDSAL

In general, IC50 refers to the concentration that gives 50% inhibition. Turning to `COc1cccc(-n2nc(C(=O)O)cc2-c2ccc(C3CCCCC3)c(Cl)c2)c1`, the IC50 in test [1] is 800 nM; in test [2] it was over 10000 nM.
